Results on 103 compounds are retold here after PubChem BioAssay AID1549 (Sanford-Burnham Center for Chemical Genomics, 2009).

Calls of active or inactive are those of the source. How the calls were made is not given here.

This assay addresses Influenza A virus M2 proton channel (A/TW/4845/1999 H1N1). Kind of assay: M2 proton channel binding, NMR based, influenza A virus H1N1 strain (AID 1549). To be noted: NMR binding screen, M2 protein.
As for `O=S1(=O)CCC(NCCO)C1` (stereo not drawn), the Kd (commonly the concentration at which binding is half-saturated) is > 4 mM (inactive). As for `CC(=O)Nc1ccc2c(c1)C(=O)N(C1CCCCC1)C2=O`, the Kd was > 4 mM (inactive). `NC(=O)NC1C=CS(=O)(=O)C1` (stereo not drawn): the Kd was > 4 mM (inactive). Take `CC(=O)O[C@H]1CC[C@@]2(C)C(=CCC3C2CC[C@@]2(C)C3CC[C@@H]2C(C)CCCC(C)C)C1` (stereo partly drawn): the Kd is > 4 mM (inactive). Next, `COc1ccc(CC(=O)c2ccc(O)cc2O)cc1`: > 4 mM (inactive); `Cc1ccn(S(=O)(=O)c2ccc(C(C)(C)C)cc2)n1`: > 4 mM (inactive); `Cc1nn2c(-c3ccncc3)nnc2c2ccccc12`: > 4 mM (inactive). Next, `Cc1cc(=O)cc(C)n1-c1ccccc1N`: > 4 mM (inactive); `O=C(O)c1cncc(-c2cccs2)c1`: > 4 mM (inactive). For `CCn1cnc2sc(C(=O)O)c(C)c2c1=O`, the Kd was > 4 mM (inactive).

`O=C1NC(=O)C(C2SC(=O)NC2=O)S1` (stereo not drawn): the Kd is > 4 mM (inactive). On to `OC[C@H]1O[C@@H](Oc2ccc(O)cc2)[C@H](O)[C@@H](O)[C@@H]1O`, for which the Kd was > 4 mM (inactive). Regarding `COC(=O)C[C@H]1C(C)(C)C(=O)[C@@H]2CC3=C4CC(=O)O[C@@H](c5ccoc5)[C@]4(C)CCC3C1(C)C2=O` (stereo partly drawn), the Kd is > 4 mM (inactive).

Take `Cc1ccc(C)c(C(=O)NCc2ccncc2)c1`: the Kd was > 4 mM (inactive). `CC(=O)Oc1ccc(-c2cc(=O)c3c(OC(C)=O)cc(OC(C)=O)cc3o2)cc1`: the Kd was > 4 mM (inactive). For `Cn1c(=O)n(C)c2cc(C(N)=O)ccc21`, the Kd is > 4 mM (inactive).

For `CN(C)S(=O)(=O)c1ccc(C(=O)NN)cc1`, the Kd was > 4 mM (inactive).

For `CC(=O)Nc1c(C)n(C)n(-c2ccccc2)c1=O`, the Kd is > 4 mM (inactive). For `CN1CCN(C(=O)/C=C\C(=O)O)CC1`, the Kd was > 4 mM (inactive). Next, `Cc1ccc(S(=O)(=O)CC(=O)N2CCCC2)cc1`: > 4 mM (inactive); `Cc1nc2sccn2c1C(=O)O`: > 4 mM (inactive); `Cc1nc2ccccc2c(=O)[nH]1`: > 4 mM (inactive). Regarding `CCN1CCc2c(sc(N)c2C(N)=O)C1`, the Kd is > 4 mM (inactive). Consider `O=C(c1ccc(Cl)c(F)c1F)N1CCCC1`, for which the Kd was > 4 mM (inactive). Regarding `O=C(O)c1cc(=O)[nH]c2ccccc12`, the Kd was > 4 mM (inactive). For `Cc1ccc(CNc2ccc(O)cc2)cc1`, the Kd is > 4 mM (inactive). For the compound `COc1ccc(C2=CC(=O)C=CC2=O)cc1`, the Kd is > 4 mM (inactive). Consider `NC(=O)CSc1ccc2nnc(-c3ccccc3)n2n1`, for which the Kd is > 4 mM (inactive).

Take `O=C(O)c1ccc(Nc2nncc(=O)[nH]2)cc1`: the Kd is > 4 mM (inactive). As to `COC(=O)c1nc(-c2ccccc2)oc1N(C)C`, the Kd is > 4 mM (inactive).

Turning to `Cc1noc(C)c1C(=O)Nc1ccccn1`, the Kd is > 4 mM (inactive).

Consider `Clc1ccccc1OCc1nc(-c2ccncc2)no1`, for which the Kd is > 4 mM (inactive). `Cc1cccc(OCc2nnc(N)s2)c1`: the Kd is > 4 mM (inactive).

For the compound `COc1ccc(-c2cc(=O)c3c(O)cc(O[C@H]4O[C@H](CO[C@@H]5O[C@@H](C)[C@H](O)[C@@H](O)[C@H]5O)[C@@H](O)[C@H](O)[C@H]4O)cc3o2)cc1`, the Kd was > 4 mM (inactive). Then `Cc1nn2c(nc1=O)SCC2(O)c1ccccc1` (stereo not drawn), with > 4 mM (inactive). With `NC1=NC(=O)C(Cc2ccccc2)S1` (stereo not drawn), the Kd was > 4 mM (inactive). Consider `O=C(O)Cn1nnn(-c2ccccc2)c1=S`, for which the Kd is > 4 mM (inactive). As for `Cc1cc(=O)n2ncn(Cc3ccccc3)c2n1`, the Kd was > 4 mM (inactive). On to `O=S(=O)(Cc1ccc(Cl)cc1)N1CCCC1`, for which the Kd was > 4 mM (inactive).

As to `O=C(CN1CCOCC1)Nc1nccs1`, the Kd was > 4 mM (inactive). As for `Nc1nncn1C(=O)c1ccccc1Cl`, the Kd was > 4 mM (inactive). Consider `CCn1nnnc1Oc1ccc(Cl)cc1`, for which the Kd is > 4 mM (inactive). As for `Cc1cc(C)n(CC(=O)O)n1`, the Kd is > 4 mM (inactive). In the case of `O=C(NCc1cccc(Cl)c1)c1cnccn1`, the Kd is > 4 mM (inactive).

On to `O=C(O)c1ccc(-n2cccn2)cc1`, for which the Kd is > 4 mM (inactive).

As to `COC(=O)c1cccc2cc[nH]c12`, the Kd is > 4 mM (inactive). With `O=C1COc2ccccc2C(=O)N1`, the Kd was > 4 mM (inactive). On to `CC1(C)Cn2c(nnc2-c2ccccc2)S1`, for which the Kd was > 4 mM (inactive). As for `O=C(Nc1nncs1)C1(c2ccccc2)CCCC1`, the Kd is > 4 mM (inactive).

Regarding `COCCn1c(SC)nc2c1c(=O)[nH]c(=O)n2C`, the Kd is > 4 mM (inactive).

For the compound `Cc1n[nH]c(C)c1CC(=O)O`, the Kd is > 4 mM (inactive). `CC(=O)O[C@H]1CC[C@]2(C)C3CC[C@@]4(C)C(CC5O[C@@]6(CCC(C)CO6)[C@@H](C)C54)C3CC[C@@H]2C1` (stereo partly drawn): the Kd was > 4 mM (inactive). Then `Cc1nc2ccccc2c2c1C(=O)N(C)C2=O`, with > 4 mM (inactive); and `c1ccc2c(c1)ncn2CCn1cnc2ccccc21`, with > 4 mM (inactive); and `Cc1cc(OC(=O)c2c(C)cc(O)cc2O)cc(O)c1C(=O)O`, with > 4 mM (inactive). Take `COC(=O)Cc1csc(N)n1`: the Kd is > 4 mM (inactive). Take `Cc1ccc(C(=O)N2CCOCC2)cc1Cl`: the Kd is > 4 mM (inactive). In the case of `C=C[C@@]1(C)CC(=O)[C@@]2(O)[C@](C)(O1)[C@@H](OC(C)=O)[C@@H](O)C1C(C)(C)CC[C@H](O)[C@@]12C` (stereo partly drawn), the Kd is > 4 mM (inactive).

For `NC(=S)CN1CCCC1=O`, the Kd was > 4 mM (inactive). `NCc1ccc2c(c1)CCO2`: the Kd was > 4 mM (inactive). On to `Cc1ccc(NC(=O)C(=O)Nc2ccccn2)cc1`, for which the Kd was > 4 mM (inactive). Take `O=c1n(-c2cccc(Cl)c2)c(=O)n2n1CCC2`: the Kd is > 4 mM (inactive).

On to `OCc1ccccc1N1CCOCC1`, for which the Kd was > 4 mM (inactive). `CCSc1nc(=S)n(CC)c(C)c1C(C)=O`: the Kd is > 4 mM (inactive).

Consider `O=c1c(O)cccc2cc(O)c(O)c(O)c12`, for which the Kd is > 4 mM (inactive).

`OC1CCN(Cc2ccc[nH]2)CC1`: the Kd was > 4 mM (inactive). Next, `C=C[C@@](C)(O)CCC1C(=C)C[C@H](O)C2C(C)(C)CCCC12C` (stereo partly drawn): > 4 mM (inactive). Consider `CCOc1nc(C)ccc1-c1noc(-c2ccco2)n1`, for which the Kd was > 4 mM (inactive).

As for `Cc1cc(C(F)(F)F)nn1CC(N)=O`, the Kd was > 4 mM (inactive). In the case of `O=S1(=O)CCC(NC(=S)N2CCCCC2)C1` (stereo not drawn), the Kd was > 4 mM (inactive). For `COc1cc(CNC(=O)CCCC/C=C/C(C)C)ccc1O`, the Kd was > 4 mM (inactive).

Take `CC(=O)Nc1nc(C)c(C(C)=O)s1`: the Kd is > 4 mM (inactive). Consider `O=C(NC1=NCCS1)c1ccc([N+](=O)[O-])cc1Cl`, for which the Kd was > 4 mM (inactive). With `O=C1NC(=O)C(Cc2cccs2)C(=O)N1`, the Kd was > 4 mM (inactive). Then `NC(=O)CS(=O)(=O)c1ccc2ccccc2c1`, with > 4 mM (inactive). Take `C=CCCCCCCCCCCCC(O)CC(O)COC(C)=O` (stereo not drawn): the Kd was > 4 mM (inactive). As for `CC(C)/C(O)=C1/C(=O)O[C@@H](c2ccoc2)[C@]2(C)C(O)[C@@H](O)[C@@]34OC5(C)OC67CC(C)(C(O)[C@]6(O)[C@@H](O)[C@]3(O5)C12)[C@H](CC(=O)O)[C@]74C` (stereo partly drawn), the Kd is > 4 mM (inactive). As to `NC(=O)c1ccc(N=Cc2ccc[nH]2)cc1`, the Kd is > 4 mM (inactive). As for `Cc1cc(C(=O)N2CCOCC2)c(C)o1`, the Kd is > 4 mM (inactive).

For the compound `Cc1cc(CN2C(=O)c3ccccc3C2=O)on1`, the Kd was > 4 mM (inactive). Then `COc1ccc2nc(SCC(N)=O)[nH]c2c1`, with > 4 mM (inactive); and `CC(C)=CCC1=C(O)c2ccccc2C(=O)C1=O`, with > 4 mM (inactive).

For the compound `COc1cc2ccc(=O)oc2c2ccoc12`, the Kd is > 4 mM (inactive).

As for `CC(=O)n1nc(-c2cccnc2)nc1N`, the Kd is > 4 mM (inactive). `COc1cc(O)c(C(=O)c2ccccc2)cc1O`: the Kd was > 4 mM (inactive). Consider `COc1ccc(-c2cc(=O)c3ccccc3o2)cc1OC`, for which the Kd is > 4 mM (inactive). On to `COc1c(O)cc(O)cc1O`, for which the Kd is > 4 mM (inactive).

As to `Cc1cccc(C)c1NC(=O)CN1CCOCC1`, the Kd is > 4 mM (inactive). As to `Nc1cccc(S(N)(=O)=O)c1`, the Kd was > 4 mM (inactive). Regarding `Nc1c(C(=O)O)sc2ncccc12`, the Kd was > 4 mM (inactive). As for `Nc1ccc2c(c1)S(=O)(=O)C=C2`, the Kd was > 4 mM (inactive). `O=C(O)CNS(=O)(=O)c1cccs1`: the Kd is > 4 mM (inactive). For the compound `CC(C)=CC(=O)Nc1ccc2c(c1)OCO2`, the Kd was > 4 mM (inactive). Take `C=C1CCC2C(CC2(C)C)C(=O)CCC1O` (stereo not drawn): the Kd is > 4 mM (inactive).

`Cc1ccc(S(=O)(=O)CC(N)=O)cc1`: the Kd was > 4 mM (inactive). With `CN1CCN(CC(=O)N2CCc3ccccc32)CC1`, the Kd was > 4 mM (inactive). Then `O=C(O)CCC(=O)Nc1ccccc1F`, with > 4 mM (inactive); and `Cc1ccc(Nc2nc(N)nc(CC#N)n2)cc1`, with > 4 mM (inactive). `CC(=O)Oc1ccc2c(c1C(C)C)CCC1C(C)(C)CCC[C@]21C` (stereo partly drawn): the Kd was > 4 mM (inactive). Consider `CC(=O)c1c(C)nc(-c2ccc(Cl)cc2Cl)n1O`, for which the Kd was > 4 mM (inactive). Next, `O=C(O)c1ccc(-c2ccccn2)s1`: > 4 mM (inactive). Then `OCc1ccc(N2CCOCC2)cc1`, with > 4 mM (inactive); and `CC1(C)N([O-])c2cc([N+](=O)[O-])ccc2[N+]1=O`, with > 4 mM (inactive).
